Patent publication US12065428B2, “Anti-viral compounds” (Aligos Therapeutics, Inc., priority 2021, dated 2024)
Read-outs that look alike come from different tables or passages of the source.

Assays:
SARS-Cov-2 3CLpro = target: T1, SARS-Cov-2 3CLpro (Severe acute respiratory syndrome coronavirus 2, UniProt P0DTD1); assay: SARS-Cov-2 3CLpro and HRV3C duplex assay (SAMDI-MS): 3CLpro; type: biochemical; conditions: 3CLpro, duplex assay, 30 mins preincubation; class symbols; read-out: SARS-Cov-2 IC50
T1 construct: SARS-Cov-2 3CLpro and HRV3C Duplex Assay

HRV3C = target: T2, HRV3C (Human rhinovirus 14, UniProt P03303); assay: biochemical; conditions: read-out: HRV IC50
T2 construct: SARS-Cov-2 3CLpro and HRV3C Duplex Assay
T2 sequence (P03303 1538-1719): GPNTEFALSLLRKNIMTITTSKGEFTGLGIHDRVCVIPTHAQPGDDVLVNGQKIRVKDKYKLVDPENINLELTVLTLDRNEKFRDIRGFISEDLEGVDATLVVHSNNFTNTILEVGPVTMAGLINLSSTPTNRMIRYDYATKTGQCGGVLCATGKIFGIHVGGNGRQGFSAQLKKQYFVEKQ

[1] = test system: human beta-coronavirus OC43; assay: OC43 coronavirus assay in HeLa cells (cytopathic effect, cell-titer-glo); type: cell-based
[2] = Cytotoxicity plates without OC43 virus in HeLa cells; type: cell-based; conditions: human, HeLa cells (uninfected)
Method: The human beta-coronavirus OC43 was purchased from ATCC (Manassas, VA) and propagated using HCT-8 human colorectal epithelial cells (ATCC). HeLa human cervical epithelial cells (ATCC) were used as susceptible host cell lines and were cultured using EMEM media, supplemented with 10% fetal bovine serum (FBS), 1% (v/v) penicillin/streptomycin (P/S), 1% (v/v) HEPES and 1% (v/v) cellgro Glutagro™ supplement (all Corning, Manassas, VA) at 37° C. For the OC43 antiviral assay, 1.5×10^4 HeLa cells per well were plated in 100 μL complete media in white 96-well plates with clear bottoms at 37° C. for up to 24 h to facilitate attachment and allow cells to recover from seeding stresses. Next day, the cell culture medium was removed. Serially diluted compounds in 100 μL assay media (EMEM, 2% FBS, 1% P/S, 1% cellgro Glutagro™ supplement, 1% HEPES) were added to the cells and incubated for 4H at 37° C. in a humidified 5% CO2 incubator. 100 μL of OC43 virus stock was diluted to a concentration known to produce optimal cytopathic effect, inducing 80-90% reduction in cell viability. 96-well plates were incubated for 6 (HeLa) days at 33° C.; each plate contains uninfected control wells as well as virus-infected wells that were not treated with compound. Cytotoxicity plates without the addition of OC43 virus were carried out in parallel. At the end of the incubation period, 100 μL cell culture supernatant was replaced with 100 μL cell-titer-glo reagent (Promega, Madison, WI) and incubated for at least 10 min at rt prior to measuring luminescence. Luminescence was measured on a Perkin Elmer (Waltham, MA) Envision plate reader. Antiviral % inhibition was calculated as follows: [(Compound treated cells infected sample)−(no compound infected control)]/[(Uninfected control)−(no compound infected control)]*100; Using GraphPad (San Diego, CA) prism software version 8.3.1, the antiviral dose-response plot was generated as a sigmoidal fit, log(inhibitor) vs response-variable slope (four parameters) model and the EC50 was calculated which is the predicted compound concentration corresponding to a 50% inhibition of the viral cytopathic effect.

[3] = test system: SARS-CoV-2-GHB-03021/2020; assay: microbe, parasite or virus in culture; type: cell-based; conditions: Severe acute respiratory syndrome coronavirus 2, Vero C1008, 96 h; read-out: VeroE6 + CP (EC50)
human cathepsin L = target: T3, human cathepsin L (Homo sapiens, UniProt P07711); assay: Cathepsin L assay (Z-FR-AMC fluorescence); type: biochemical; conditions: 10 pM human cathepsin L, 30 mins preincubation; class symbols
T3 construct: purchased R&D Systems
T3 sequence (P07711 114-333): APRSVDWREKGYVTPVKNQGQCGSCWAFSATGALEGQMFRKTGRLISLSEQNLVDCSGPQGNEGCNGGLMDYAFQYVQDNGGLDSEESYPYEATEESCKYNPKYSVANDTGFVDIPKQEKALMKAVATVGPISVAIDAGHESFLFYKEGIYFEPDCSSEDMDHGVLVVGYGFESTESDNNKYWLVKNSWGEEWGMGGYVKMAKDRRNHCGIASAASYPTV
Method: For the cathepsin L assay, 10 pM of human cathepsin L (R&D Systems; Minneapolis, MN) was preincubated for 30 mins with test compounds. Reactions were initiated by the addition of a peptide substrate Z-FR-AMC (final concentration 2 μM, Anaspec; Fremont, CA). Fluorescence was measured at 2-minute intervals for 30 mins using a 355/460 excitation/emission filter module on an Envision plate reader (Perkin Elmer; Waltham, MA). The IC50 values were calculated for each assay by fitting the curves using a four-parameter equation in GraphPad Prism.

[4] = HRV3C, duplex assay, 30 mins preincubation, class symbols
[5] = Betacoronavirus 1, 144 h, OC43 in HeLa cells, 6 days at 33° C., class symbols, read-out: EC50

Row | Compound | IC50 (SARS-Cov-2 3CLpro) | IC50 (HRV3C; [4]) | EC50 [1, 5] | CC50 at 6 days ([2]; numeric bound, unit inferred) | EC50 [3] | IC50 (human cathepsin L) | IC50 (HRV3C) | CC50 at 6 days ([2]; class symbols) | EC50 ([1]; Betacoronavirus 1, OC43, HeLa) | IC50 (HRV3C; HRV3C, duplex assay, numeric bound: >10 indicates an IC50>10000 nM)
1 | O=C(NC1CC1)C(=O)C(C[C@@H]1CCNC1=O)NC(=O)[C@@H]1[C@@H]2C[C@@H](CC23CC3)N1C(=O)c1ncc(-c2ccccc2)s1 (stereo partly drawn) [Compound 49, N-cyclopropyl-2-oxo-4-[(3S)-2-oxopyrrolidin-3-yl]-3-[(1R,4S,6S)-5-(5-phenyl-1,3-thiazole-2-carbonyl)-5-azaspiro[bicyclo[2.2.1]heptane-2,1′-cyclopropan]-6-ylformamido]butanamide] | 20 to 200 nM | 2000 to 20000 nM | 100 to 1000 nM | > 100000 nM | < 1000 nM | ≥ 10000 nM | – | – | – | –
2 | CC(C)(C)[C@H](NC(=O)C(F)(F)F)C(=O)N1[C@H]2C[C@@H]([C@H]1C(=O)N[C@H](C#N)C[C@@H]1CCNC1=O)C1(CC1)C2 [Compound 50, (1R,4S,6S)—N-[(1S)-1-cyano-2-[(3S)-2-oxopyrrolidin-3-yl]ethyl]-5-[(2S)-3,3-dimethyl-2-(2,2,2-trifluoroacetamido)butanoyl]-5-azaspiro[bicyclo[2.2.1]heptane-2,1′-cyclopropane]-6-carboxamide] | < 20 nM | – | < 100 nM | > 100000 nM | < 1000 nM | ≥ 10000 nM | > 10000 nM | – | – | –
3 | CC(C)(C)[C@H](NC(=O)C(F)(F)F)C(=O)N1CCC2(C[C@H]1C(=O)N[C@H](C#N)C[C@@H]1CCNC1=O)CC(F)(F)C2 [Compound 51, (S)—N—((S)-1-cyano-2-((S)-2-oxopyrrolidin-3-yl)ethyl)-7-((S)-3,3-dimethyl-2-(2,2,2-trifluoroacetamido)butanoyl)-2,2-difluoro-7-azaspiro[3.5]nonane-6-carboxamide] | 200 to 2000 nM | – | 1000 to 10000 nM | > 100000 nM | 1000 to 10000 nM | ≥ 10000 nM | > 10000 nM | – | – | –
4 | O=C(NC1CC1)C(=O)[C@H](C[C@@H]1CCNC1=O)NC(=O)[C@@H]1CC2(CCN1C(=O)c1ncc(-c3ccccc3)s1)CC2 [Example 1, (S)—N—((S)-4-(cyclopropylamino)-3,4-dioxo-1-((S)-2-oxopyrrolidin-3-yl)butan-2-yl)-6-(5-phenylthiazole-2-carbonyl)-6-azaspiro[2.5]octane-5-carboxamide] | 20 to 200 nM | 200 to 2000 nM | 100 to 1000 nM | – | < 1000 nM | ≥ 10000 nM | – | 10000 to 100000 nM | – | –
5 | Cn1c(C(=O)N2CCC3(CC3)C[C@H]2C(=O)N[C@@H](C[C@@H]2CCNC2=O)C(=O)CO)cc2ccccc21 [Example 2, (S)—N—((S)-4-hydroxy-3-oxo-1-((S)-2-oxopyrrolidin-3-yl)butan-2-yl)-6-(1-methyl-1H-indole-2-carbonyl)-6-azaspiro[2.5]octane-5-carboxamide] | 20 to 200 nM | – | 1000 to 10000 nM | – | 1000 to 10000 nM | ≥ 10000 nM | > 10000 nM | ≥ 100000 nM | – | –
6 | O=C(NC1CC1)C(=O)[C@H](C[C@@H]1CCNC1=O)NC(=O)[C@@H]1CC2(CCN1C(=O)c1nc(-c3ccccc3)cs1)CC2 [Example 3] | 20 to 200 nM | 2000 to 20000 nM | 100 to 1000 nM | – | 1000 to 10000 nM | ≥ 10000 nM | – | 10000 to 100000 nM | – | –
7 | Cn1c(C(=O)N2CCC3(CC3)C[C@H]2C(=O)N[C@@H](C[C@@H]2CCNC2=O)C(=O)C(=O)NC2CC2)nc2ccccc21 [Example 4] | 20 to 200 nM | 2000 to 20000 nM | 1000 to 10000 nM | – | 1000 to 10000 nM | ≥ 10000 nM | – | ≥ 100000 nM | – | –
8 | Cn1c(C(=O)N2CCC3(CC3)C[C@H]2C(=O)N[C@H](C#N)C[C@@H]2CCNC2=O)cc2ccccc21 [Example 5, (S)—N—((S)-1-cyano-2-((S)-2-oxopyrrolidin-3-yl)ethyl)-6-(1-methyl-1H-indole-2-carbonyl)-6-azaspiro[2.5]octane-5-carboxamide] | 200 to 2000 nM | – | 1000 to 10000 nM | – | 1000 to 10000 nM | ≥ 10000 nM | > 10000 nM | ≥ 100000 nM | – | –
9 | O=C(NC1CC1)C(=O)[C@H](C[C@@H]1CCNC1=O)NC(=O)[C@@H]1CC2(CCN1C(=O)C1Cc3ccccc3C1)CC2 [Example 6, (S)—N—((S)-4-(cyclopropylamino)-3,4-dioxo-1-((S)-2-oxopyrrolidin-3-yl)butan-2-yl)-6-(2,3-dihydro-1H-indene-2-carbonyl)-6-azaspiro[2.5]octane-5-carboxamide] | 20 to 200 nM | 200 to 2000 nM | 100 to 1000 nM | – | < 1000 nM | ≥ 10000 nM | – | ≥ 100000 nM | – | –
10 | Cn1nc2ccccc2c1C(=O)N1CCC2(CC2)C[C@H]1C(=O)N[C@@H](C[C@@H]1CCNC1=O)C(=O)C(=O)NC1CC1 [Example 7] | < 20 nM | 200 to 2000 nM | 100 to 1000 nM | – | 1000 to 10000 nM | 1000 to 10000 nM | – | ≥ 100000 nM | – | –
11 | O=C(NC1CC1)C(=O)[C@H](C[C@@H]1CCNC1=O)NC(=O)[C@@H]1CC2(CCN1C(=O)c1cc3ccccc3n1C1CC1)CC2 [Example 8] | < 20 nM | 2000 to 20000 nM | 100 to 1000 nM | – | < 1000 nM | ≥ 10000 nM | – | ≥ 100000 nM | – | –
12 | O=C(NC1CC1)C(=O)[C@H](C[C@@H]1CCNC1=O)NC(=O)[C@@H]1CC2(CCN1C(=O)c1cc3ccccn3n1)CC2 [Example 9] | 200 to 2000 nM | 2000 to 20000 nM | 1000 to 10000 nM | – | 1000 to 10000 nM | ≥ 10000 nM | – | ≥ 100000 nM | – | –
13 | Cn1nc(C(=O)N2CCC3(CC3)C[C@H]2C(=O)N[C@@H](C[C@@H]2CCNC2=O)C(=O)C(=O)NC2CC2)c2ccccc21 [Example 10] | 20 to 200 nM | 200 to 2000 nM | 1000 to 10000 nM | – | 1000 to 10000 nM | ≥ 10000 nM | – | ≥ 100000 nM | – | –
14 | Cn1cc(C(=O)N2CCC3(CC3)C[C@H]2C(=O)N[C@@H](C[C@@H]2CCNC2=O)C(=O)C(=O)NC2CC2)c2ccccc21 [Example 11] | 20 to 200 nM | < 20 nM | 1000 to 10000 nM | – | 1000 to 10000 nM | 1000 to 10000 nM | – | ≥ 100000 nM | – | –
15 | O=C(NC1CC1)C(=O)C(C[C@@H]1CCNC1=O)NC(=O)[C@@H]1CC2(CCN1C(=O)c1cc3cccc(Cl)c3s1)CC2 (stereo partly drawn) [Example 12, (5S)-6-(7-chlorobenzo[b]thiophene-2-carbonyl)-N-(4-(cyclopropylamino)-3,4-dioxo-1-((S)-2-oxopyrrolidin-3-yl)butan-2-yl)-6-azaspiro[2.5]octane-5-carboxamide] | < 20 nM | 20 to 200 nM | 100 to 1000 nM | – | < 1000 nM | 1000 to 10000 nM | – | 10000 to 100000 nM | – | –
16 | CN1CCN(c2ccc(C(=O)N3CCC4(CC4)C[C@H]3C(=O)N[C@@H](C[C@@H]3CCNC3=O)C(=O)C(=O)NC3CC3)cc2)CC1 [Example 13, (3S)—N-cyclopropyl-3-{[(5S)-6-[4-(4-methylpiperazin-1-yl)benzoyl]-6-azaspiro[2.5]octan-5-yl]formamido}-2-oxo-4-[(3S)-2-oxopyrrolidin-3-yl]butanamide] | 200 to 2000 nM | – | – | – | > 50000 nM | 1000 to 10000 nM | > 10000 nM | ≥ 100000 nM | > 10000 nM | –
17 | N#C[C@H](C[C@@H]1CCNC1=O)NC(=O)[C@@H]1CC2(CCN1C(=O)c1ncc(-c3ccccc3)s1)CC2 [Example 52, (S)—N—((S)-1-cyano-2-((S)-2-oxopyrrolidin-3-yl)ethyl)-6-(5-phenylthiazole-2-carbonyl)-6-azaspiro[2.5]octane-5-carboxamide] | 200 to 2000 nM | – | – | > 100000 nM | 10000 to 100000 nM | ≥ 10000 nM | – | – | > 10000 nM | > 10000 nM
